Laboratory results: US8652771B2, “Measurement of succinate in urine samples as a biomarker of kidney damage in diabetic subjects” (University of Souther California, priority 2008, dated 2014)
Like-named read-outs stand apart in the source and are kept apart here. Each block holds one compound with its values, some of them ahead of it.

Experiments:
[1] = tested on: JGA (renin-producing JG cells); experiment: In vitro microperfused afferent arteriole-glomerulus (JGA) renin release, quinacrine fluorescence confocal imaging; design: species or system rabbit; conditions: for effect on high glucose level-induced renin release and afferent arteriole diameter increase (FIG. 1C): high glucose 25.5 mM; for renin release (change in quinacrine fluorescence intensity [F0-F] normalized to baseline [F0]): agent alone in afferent arteriole perfusate, within 30 minutes, glucose 25.5 mM, equimolar mannitol, α-ketoglutarate 5 mM, otherwise normal glucose 5.5 mM; for EC50: dose-response, FIG. 2C
Description: (A and B) Real-time confocal fluorescence imaging of renin content (quinacrine, light gray) and vascular diameter (cell membranes are labeled with R-18, dark gray) in the in vitro microperfused terminal afferent arteriole (AA) with attached glomerulus (G) freshly isolated from rabbit kidney. […] Scale bar: 20 μm.
(A) Overview of the TCA cycle and sites of inhibition with fluorocitrate (F: 100 μM: blocks aconitase in step 2) and malonate (MAL; 1 mM; blocks succinate dehydrogenase in step 6).
A superficial afferent arteriole with its glomerulus was microdissected from freshly harvested kidney slices. The afferent arteriole was cannulated and perfused using a method similar to those described previously (37). Briefly, dissection media were prepared from DMEM mixture F-12 (Sigma-Aldrich). Fetal bovine serum (Hyclone) was added at a final concentration of 3%. Vessel perfusion and bath fluid was a modified Krebs-Ringer-HCO3 buffer containing 115 mM NaCl, 25 mM NaHCO3, 0.96 mM NaH2PO4, 0.24 mM Na2HPO4, 5 mM KCl, 1.2 mM MgSO4, 2 mM CaCl2, 5.5 mM d-glucose and 100 μM l-arginine. The solutions were aerated with 95% O2 and 5% CO2 for 45 minutes, and their pH was adjusted to 7.4. Each preparation was transferred to a thermoregulated Lucite chamber mounted on the Leica inverted microscope. The preparation was kept in the dissection solution, and also, temperature was kept at 4° C. until cannulation of the arteriole was completed and then was gradually raised to 37° C. for the remainder of the experiment. In some experiments, the endothelium was mechanically removed from the vessel wall with the help of the perfusion pipette and by perfusing the control solution under the endothelium (between the endothelium and smooth muscle). […] The bath was continuously aerated with 95% O2 and 5% CO2. The acidotropic fluorophore quinacrine (Sigma-Aldrich), which is an intravital fluorescent dye selective for dense-core secretory granules, was used for labeling the renin granules (12, 13, 15). The membrane staining octadecyl rhodamine B chloride R18 and the nuclear stain Hoechst 33342 were used to visualize the glomerulus with its attached afferent arteriole. For ratiometric Ca2+ imaging, the fluo-4/fura red pair was used and calibrated as described before (37). DAF-FM was used to monitor changes in NO production as described (38). All fluorophores were from Invitrogen.

GENCs [2] = experiment: GENC [Ca2+]i, fura-2 spectrofluorometry; assay type: cell-based, mouse; conditions: for GENC intracellular Ca2+ [Ca2+]i level: high glucose 25.5 mM, succinate 5 mM, malonate 1 mM, fluorocitrate 100 p.M, normal glucose baseline 133±14 nM
HEK cells = conditions: saturating doses of succinate
Source text: (§1) FIG. 5: Localization of GPR91 in GENCs. […] C, control mix with no cDNA; WK, whole kidney from WT GPR91^+/+ or KO GPR91^−/− mice. […] JGC, renin-producing JG cells. (B-E) Localization of GPR91 protein in rat kidney with immunohistochemistry. […] One region of the glomerulus (indicated by a rectangle) is magnified in C and D for high-resolution colocalization studies. […] DIC background is merged with fluorescence to show glomerular morphology. (E) Negative control using no GPR91 primary antibody. Nuclei are medium gray. Scale bar: 10 μm (B-E).

JG cells = conditions: saturating doses of succinate
Source text: as §1

VSMCs = conditions: saturating doses of succinate
Source text: as §1

vascular endothelium = experiment: Endothelial [Ca2+]i (fluo-4/fura red) and NO production (DAF-FM) in microperfused afferent arteriole-glomerulus; design: species or system mouse; conditions: glucose 5.5 to 25.5 mM or succinate 5 mM in arteriolar perfusate
Description: FIG. 6: GPR91 signaling in the vascular endothelium. […] Scale bar: 20 μm. […] KO (^−/−); n=6 each. […] A superficial afferent arteriole with its glomerulus was microdissected from freshly harvested kidney slices. The afferent arteriole was cannulated and perfused using a method similar to those described previously (37). Briefly, dissection media were prepared from DMEM mixture F-12 (Sigma-Aldrich). […] Vessel perfusion and bath fluid was a modified Krebs-Ringer-HCO3 buffer containing 115 mM NaCl, 25 mM NaHCO3, 0.96 mM NaH2PO4, 0.24 mM Na2HPO4, 5 mM KCl, 1.2 mM MgSO4, 2 mM CaCl2, 5.5 mM d-glucose and 100 μM l-arginine. […] Each preparation was transferred to a thermoregulated Lucite chamber mounted on the Leica inverted microscope. The preparation was kept in the dissection solution, and also, temperature was kept at 4° C. until cannulation of the arteriole was completed and then was gradually raised to 37° C. for the remainder of the experiment. In some experiments, the endothelium was mechanically removed from the vessel wall with the help of the perfusion pipette and by perfusing the control solution under the endothelium (between the endothelium and smooth muscle). […] The acidotropic fluorophore quinacrine (Sigma-Aldrich), which is an intravital fluorescent dye selective for dense-core secretory granules, was used for labeling the renin granules (12, 13, 15). […]

GENCs [3] = conditions: read-out: EC50, PGE2 release from GENCs; dose-response, FIG. 6D
Source text: Specially engineered biosensor cells, HEK293 cells, expressing the Ca^2+-coupled PGE2 receptor EP1 were loaded with fluo-4 and positioned next to GENCs in culture. […] Normalized changes in HEK293-EP1 biosensor cell fluo-4 intensity are shown and served as an index of PGE2 release. n=6 for each dose.

[4] = L-NAME 1 mM, indomethacin 50 μM
[5] = agent combined with high glucose 25.5 mM, succinate 5 mM, malonate 1 mM, fluorocitrate 100 μM, L-NAME 1 mM, indomethacin 50 μM
[6] = succinate 5 mM, malonate 1 mM, fluorocitrate 100 μM

SMILES: COC(=O)[C@@H](N)CCCNC(=N)N[N+](=O)[O-] [L-NAME]
effect on high glucose level-induced renin release and afferent arteriole diameter increase (FIG. 1C) [1, 4]: inhibited the effects of high glucose level
renin release (change in quinacrine fluorescence intensity normalized to baseline) [1, 5]: 14±6 Δ%

SMILES: O=C(O)CC(O)(C(=O)O)C(F)C(=O)O (centres unmarked) [fluorocitrate]
renin release (change in quinacrine fluorescence intensity [F0-F] normalized to baseline [F0]) [1, 6]: 11±2 Δ%
renin release (change in quinacrine fluorescence intensity normalized to baseline) [1, 5]: 16±2 Δ%
GENC intracellular Ca2+ [Ca2+]i level (GENCs [2]): 143 ± 11 nM

SMILES: COc1ccc2c(c1)c(CC(=O)O)c(C)n2C(=O)c1ccc(Cl)cc1 [indomethacin]
effect on high glucose level-induced renin release and afferent arteriole diameter increase (FIG. 1C) [1, 4]: inhibited the effects of high glucose level
renin release (change in quinacrine fluorescence intensity normalized to baseline) [1, 5]: 13±2 Δ%

SMILES: O=C(O)CC(=O)O [malonate]
renin release (change in quinacrine fluorescence intensity [F0-F] normalized to baseline [F0]) [1, 6]: 54±7 Δ%
renin release (change in quinacrine fluorescence intensity normalized to baseline) [1, 5]: 77±2 Δ%
EC50 [1]: 367 µM
renin release (change in quinacrine fluorescence intensity normalized to baseline) ([1]; malonate 1 mM plus succinate 5 mM): 83±4 Δ%
GENC intracellular Ca2+ [Ca2+]i level (GENCs [2]): 377 ± 22 nM

SMILES: OC[C@@H](O)[C@@H](O)[C@H](O)[C@H](O)CO [mannitol]
renin release (change in quinacrine fluorescence intensity [F0-F] normalized to baseline [F0]) [1, 6]: 19±4 Δ%

EC50 [1]: 335 µM
EC50 (GENCs [2]; succinate added to the superfusate, FIG. 5G, read-out: EC50, GENC Ca2+ signal): 69 µM
EC50 (GENCs [3]): 214 µM
SMILES: O=C(O)CCC(=O)O [succinate]
renin release (change in quinacrine fluorescence intensity [F0-F] normalized to baseline [F0]) [1, 6]: 73±2 Δ%
renin release (change in quinacrine fluorescence intensity normalized to baseline) [1, 5]: 56±3 Δ%
[Ca2+]i response in GENCs with GPR91 silenced (GENCs [2]; GPR91 siRNA): no [Ca2+]i response
GENC intracellular Ca2+ [Ca2+]i level (GENCs [2]): 549 ± 29 nM
[Ca2+]i elevation (HEK cells): did not cause [Ca2+]i elevations
[Ca2+]i elevation (JG cells): did not cause [Ca2+]i elevations
[Ca2+]i elevation (VSMCs): did not cause [Ca2+]i elevations
endothelial NO production (vascular endothelium): significant elevations
endothelial [Ca2+]i (vascular endothelium): significant elevations

SMILES: O=C(O)CCC(=O)C(=O)O [α-ketoglutarate]
renin release (change in quinacrine fluorescence intensity [F0-F] normalized to baseline [F0]) [1, 6]: no effect
